Measurements taken from paper PMC6934184, “Selective DNA-PKcs inhibition extends the therapeutic index of localized radiotherapy and chemotherapy” (The Journal of Clinical Investigation, 2019).

Biological target: T1, RPS6KA5 (MSK1) (Homo sapiens, UniProt O75582)
T1 construct: purchased Thermo Fisher Scientific (Life Technologies) SelectScreen
Experiment: SelectScreen Z'LYTE
Format: biochemical
Outline: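 SelectScreen broad panel; activity (Z'LYTE, Adapta) plus binding formats. ATP: Km app for CSF1R Z'LYTE; 10 for CAMK1 Adapta. Readout = % per kinase.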

T1 sequence (O75582 whole entry): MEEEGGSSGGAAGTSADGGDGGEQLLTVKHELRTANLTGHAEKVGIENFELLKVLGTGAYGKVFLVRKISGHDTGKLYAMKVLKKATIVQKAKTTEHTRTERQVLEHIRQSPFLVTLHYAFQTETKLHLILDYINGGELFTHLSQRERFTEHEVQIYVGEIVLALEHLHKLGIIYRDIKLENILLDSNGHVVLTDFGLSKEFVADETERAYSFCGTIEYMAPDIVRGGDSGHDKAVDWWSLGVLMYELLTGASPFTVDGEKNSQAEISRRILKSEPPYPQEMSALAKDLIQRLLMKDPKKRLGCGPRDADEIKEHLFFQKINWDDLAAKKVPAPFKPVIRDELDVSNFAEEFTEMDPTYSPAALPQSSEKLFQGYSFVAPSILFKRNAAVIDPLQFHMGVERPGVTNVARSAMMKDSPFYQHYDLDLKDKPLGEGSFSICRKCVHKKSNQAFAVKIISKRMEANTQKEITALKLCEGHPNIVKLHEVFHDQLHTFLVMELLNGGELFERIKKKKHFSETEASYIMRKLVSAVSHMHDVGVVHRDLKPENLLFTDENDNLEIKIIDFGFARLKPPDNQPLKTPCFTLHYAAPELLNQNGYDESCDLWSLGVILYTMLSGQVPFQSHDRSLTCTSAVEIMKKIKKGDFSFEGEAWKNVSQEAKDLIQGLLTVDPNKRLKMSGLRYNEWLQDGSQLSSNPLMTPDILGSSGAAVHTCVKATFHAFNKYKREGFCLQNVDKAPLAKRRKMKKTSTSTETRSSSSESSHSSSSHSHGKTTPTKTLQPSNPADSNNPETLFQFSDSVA

Structure (SMILES): CN(C(=O)CN1CCOCC1)c1ccc2sc3c(-c4cccc5c(=O)cc(N6CC7CCC(C6)O7)oc45)cccc3c2c1 [NU5455]
- inhibition at 1 µM: 7.4%
